Consider one compound from patent US9839614B2, “Nanoparticle and polymer formulations for thyroid hormone analogs, antagonists, and formulations and uses thereof” (NANOPHARMACEUTICALS LLC, priority 2009, dated 2017).

For series [1], the system named is chick chorioallantoic membrane (CAM) blood vessel branching. Briefly: Chorioallantoic membrane (CAM) model of angiogenesis. The class given is in vivo. The essentials: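 Ten-day-old chick embryos were windowed to expose the chorioallantoic membrane. Filter-paper disks pretreated with 3 mg/mL cortisone acetate and 1 mmol/L PTU were loaded with FGF2 and test agents, dried, and placed on the CAM. After 3 days at 37° C and 55% humidity, vessel branch points under each disk were counted from digital images. Results are mean±SEM branch points.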

For series [2], the system named is GL261 murine brain tumor cells. The series is described as follows: GL261 potentially lethal damage repair (PLDR). The class given is cell-based. On the procedure: PLDR was also measured using the 10% survival level in both control and Tetrac treated-cells, and was also done for both exponentially growing and plateau phase cells. The total 10% survival dose was given, and then cells were placed back into the 37° C. incubator for various periods of time. At 0, 0.5, 1.0, 1.5, 2.0, 3.0, 4.0, 6.0, 8.0, and 10.0 hours, flasks were removed, and processed for survival assessment.
To investigate the effects of tetrac on SLDR and PLDR, cells were chosen that had been given a one-hour treatment with tetrac at two different times, i.e., at 70 and 270 hours post-seeding).

Another series concerns GL261 tumor cells. Briefly: GL261 apoptosis and necrosis with or without 5 Gy x-rays. As to conditions: Tetrac 2 μM, T-NP 0.2 μM. It is filed as cell-based, murine. On the procedure:
FIG. 61 is a comparison of apoptosis on Tetrac (2 μM) and T-NP (0.2 μM) treated GL261 cells that were or were not exposed to 5 Gy x-rays. The effects of Tetrac and T-NP plus 5 Gy of x-rays on apoptosis appear to be supra-additive.
Apoptotic cells were identified using TUNEL staining (Terminal deoxynucleotidyl transferase dUTP nick end labeling (TUNEL)) (staining kit obtained from Oncor, Gaithersberg, Md.; ApoTag) (See Gavrieli et al., J. Cell. Biol. 1992. 119:493-501). The staining procedures were carried out as instructed by the manufacturer. Gill's hematoxylin was used as a counterstain to discriminate negative cells (purple) from positive cells (brown). Negative controls were performed by omitting the terminal deoxynucleotidyl transferase enzyme. […]
To perform FCM, a total of 10^6 adherent cells were trypsinized and washed once in ambient temperature PBS. […] Cells were left overnight at 4° C. in the dark and were then analyzed on a Coulter fluorescence-activated cell sorter (Coulter Electronics, Hialeah, Fla.). Cells were excited with a single 488 nm argon laser and the resulting fluorescence was detected using a 585 nm filter. Linear red-orange fluorescence (FL3) data were collected in list format and 10,000 events were collected. The distribution of cells within the cell cycle (sub-G1, G1, S, and G2 M phases) was determined using a Coulter software program.

The subject of series [3] is SKN-SH, SaOS2 and MCF7 cells, drug-sensitive and -resistant. Briefly: Proliferation of drug-sensitive versus drug-resistant cancer cells (MTT assay). The class given is cell-based. The conditions noted are these: 4 days. The protocol:
Drug-sensitive and -resistant SKN-SH (FIGS. 13C-D), SaOS2 (FIGS. 13A-B), and MCF7 (FIGS. 13E-F) cells were subjected to treatment with increasing concentrations of Tetrac or Doxirubicin over a period of 4 days. Cell viability was then measured by MTT assay. The data represent the average of 4 determinations±SE.
Doxorubicin resistant SKN-SH/R, MCF7/R and SaOS2/R cells were subjected to treatment with Tetrac either alone or in combination with each of doxorubicin (Dox), etoposide (Etop), cisplatin (Cisp), or trichostatin A (TSA) at the indicated concentrations, After 4 days in cell viability was determined by the MTT assay and the data represented as average of 3 determinations±SE.
A general note: Formazan colour is commonly taken as a measure of viable cells.

In another series the test system is MCF7 and MCF7/R cells. Briefly: Intracellular accumulation of radiolabeled doxorubicin. The class given is cell-based. As to conditions: 24 hours, presence of Tetrac. The protocol: The cells were incubated for 24 hours with doxorubicin in the absence or the presence of Tetrac, after that they were washed and then solubilized. Radioactivity associated with the cell lysates was counted and compared between the two cell lines either treated or not with Tetrac. The data represent an average of 3 determinations±SE.

The subject of series [4] is doxorubicin-resistant MCF7/R tumors. Briefly: Doxorubicin-resistant tumors in nude mice. The class given is in vivo. The protocol: Mice were injected with doxorubicin-resistant MCF7/R cells (10^6) and after 10 days, they were assigned into groups of seven mice each and challenged with doxorubicin (2 mg/kg) or Tetrac (30 mg/kg) either alone or in combination. Tumor volume was measured every 3 days for up to three weeks.

Another series concerns the target TTR (Homo sapiens, UniProt P02766). As to conditions: cited from earlier work.
The subject of series [5] is human medullary carcinoma of the thyroid (MTC) xenografts. Briefly: MTC xenograft in nude mice. The conditions noted are these: over the course of administration.
Experimental: Human medullary carcinoma cells (TT, Catalog No. CRL-1803) were purchased from American Type Culture Collection (Manassas, Va.) and cultured as instructed by the supplier, using a complete growth medium consisting of F-12K medium with 10% FBS. Cells were cultured in 5% CO2/air atmosphere at 37 C to sub-confluence and then treated with 0.25% (w/v) trypsin/EDTA to affect cell release from the culture vessel. After washing with culture medium, the cells were suspended in DMEM (free of phenol red and FBS) and counted. • Tetrac versus tetrac NP distribution in h-MTC. […] Female NCr nude homozygous mice aged 5-6 weeks and body weights of 20 g were purchased form Taconic Farms (Hudson N.Y.). Animals were maintained under specific pathogen-free conditions and housed 4 animals per cage, under controlled conditions of temperature (20-24° C.) and humidity (60-70%) and a 12 h light/dark cycle. Water and food were provided ad libitum.

On to `O=C(O)Cc1cc(I)c(Oc2cc(I)c(O)c(I)c2)c(I)c1` [Tetrac, tetraiodothyroacetic acid], for which the “Mean % Inhibition” value in series [1] (FGF (1.25 μg/ml) + Tetrac or analog at 10 μg/plug) stood at 85%. For the same compound, in series [1] (Tetrac 0.1 μmol/L with T4), the “effect on action of T4 on angiogenesis” value was “inhibited the action of T4”. For the same compound, the “effect of Tetrac alone on angiogenesis” value in series [1] (Tetrac alone) is given as “no effect on angiogenesis”. The “effect on action of T4-agarose on angiogenesis” value in series [1] (Tetrac with T4-agarose 0.1 μmol/L) is recorded as “inhibited”. For the same compound, the “factor of inhibition of PLDR” value in series [2] (exponential cells) is reported as 1.9. Further, in series [2] (plateau phase cells), the “factor of decrease of PLDR expression” value was determined as 3.4. Further, the “effect on apoptosis combined with 5 Gy of x-rays” value with GL261 tumor cells is “supra-additive”. Further, the “effect on necrosis combined with x-rays” value in the series with GL261 tumor cells (120 hours) is “essentially additive”. The “anti-proliferative activity against drug-sensitive and drug-resistant cells” value in series [3] (MTT) is given as “equivalent anti-proliferative activity”. Further, the “cellular responses to doxorubicin, etoposide, cisplatin and TSA combined with Tetrac” value in series [3] (resistant cells) is “significantly enhanced”. Further, the “intracellular accumulation of radiolabeled doxorubicin” value in the series on MCF7 and MCF7/R cells is “increased significantly”. Moreover, in series [4] (Tetrac 30 mg/kg), the “growth of drug resistant tumors” value is recorded as “effective in suppressing the growth of drug resistant tumors” and the toxic effect result is given as “without any noticeable toxic effect”. For the same compound, in series [4] (Tetrac with doxorubicin 2 mg/kg), the doxorubicin-sensitivity in vivo entry is “not restored”. Also, on TTR, the “affinity of TTR for Tetrac relative to that for T4” value was 100 times. Also, the “decrease in tumor tissue hemoglobin content” value in series [5] is 66%.
